# Results published in patent US11000033B2, “Ketone or oxime compound, and herbicide” (NISSAN CHEMICAL CORPORATION, priority 2014, dated 2021).
# Tests used:
# Assay type in all cases: in vivo
# Veronica persica [1] = assay: Test Example 4: herbicidal effect by soil treatment (symbol R); conditions: application herbicide amount 320 g/ha
# How it was run: (§1)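 Seeds were sown in sterilized diluvial soil, covered with about 1.5 cm of soil, and the soil surface was sprayed with a water-diluted emulsion of the compound at a predetermined rate. Plants grew in a greenhouse at 25° C. to 30° C.; effects were scored visually 3 weeks after application.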
# rapeseed = assay: Test Example 4: effect on crop by soil treatment (symbol g); conditions: application herbicide amount 320 g/ha
# How it was run: (§2)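 Plants are raised in a greenhouse (25° C. to 30° C.) from spot-sown seed, which sits under about 1.5 cm of sterilized diluvial soil in a box shared with weed species.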
# [2] = tested on: Echinochloa crus-galli var. crus-galli; assay: Test Example 4: herbicidal effect by soil treatment (symbol H); conditions: application herbicide amount 320 g/ha
# How it was run: as §1
# Amaranthus retroflexus = assay: Test Example 5: herbicidal effect by foliage application, plastic box (symbol N); conditions: 320 g/ha, 3 weeks after application
# How it was run: (§3)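 Herbicide, formulated as an emulsion and diluted in water, is sprayed onto the aerial parts of 14-day seedlings. These were grown at 25° C. to 30° C. in sterilized diluvial soil; effects are graded after 3 weeks.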
# Veronica persica [3] = assay: Test Example 5: herbicidal effect by foliage application, plastic box (symbol R); conditions: 320 g/ha, 3 weeks after application
# How it was run: as §3
# Setaria viridis = assay: Test Example 5: herbicidal effect by foliage application, plastic box (symbol G); conditions: 320 g/ha, 3 weeks after application
# How it was run: as §3
# Abutilon theophrasti = assay: Test Example 5: herbicidal effect by foliage application, plastic box (symbol M); conditions: 320 g/ha, 3 weeks after application
# How it was run: as §3
# rice plant = assay: Test Example 5: effect on crop by foliage application, plastic box (symbol b); conditions: 320 g/ha, 3 weeks after application
# How it was run: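 Seeds were sown in spots in sterilized diluvial soil held in a plastic box 21 cm × 13 cm × 7 cm deep, covered with about 1.5 cm of soil, and grown in a greenhouse at 25° C. to 30° C.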
# Lolium multiflorum Lam. [4] = assay: Test Example 5: herbicidal effect by foliage application, plastic box (symbol K); conditions: 320 g/ha, 3 weeks after application
# How it was run: as §3
# Lolium multiflorum Lam. [5] = assay: Test Example 4: herbicidal effect by soil treatment (symbol K); conditions: application herbicide amount 320 g/ha
# How it was run: as §1
# Avena fatua = assay: Test Example 4: herbicidal effect by soil treatment (symbol I); conditions: application herbicide amount 320 g/ha
# How it was run: as §1
# corn = assay: Test Example 4: effect on crop by soil treatment (symbol c); conditions: application herbicide amount 320 g/ha
# How it was run: as §2
# Alopecurus myosuroides = assay: Test Example 4: herbicidal effect by soil treatment (symbol J); conditions: application herbicide amount 320 g/ha
# How it was run: as §1
# Stellaria media = assay: Test Example 5: herbicidal effect by foliage application, plastic box (symbol P); conditions: 320 g/ha, 3 weeks after application
# How it was run: as §3
# [6] = tested on: Echinochloa oryzacola Vasing.; assay: Test Example 1: herbicidal activity, application before weed generation in submerged conditions (symbol A); conditions: application herbicide amount 320 g/ha
# How it was run: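 Application before weed emergence: an aqueous dilution of the emulsion formulation was poured onto the surface of 4 cm-deep floodwater on the day of sowing. Effect was judged after 3 weeks (greenhouse, 25–30 °C).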
# [7] = tested on: Echinochloa oryzacola Vasing.; assay: Test Example 2: herbicidal activity, application during weed generation in submerged conditions (symbol A); conditions: Table 23; application herbicide amount 320 g/ha; grade 0-5 by criteria of Test Example 1
# How it was run: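 Alluvial soil in pots was flooded to a 4 cm water depth and sown with a mix of the three weed species, then grown in a greenhouse at 25° C. to 30° C. At the one- to two-leaf stage, an emulsifiable formulation diluted in water to a set dose was applied to the water surface. Effects were scored visually 3 weeks later.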
# Galium spurium = assay: Test Example 5: herbicidal effect by foliage application, plastic box (symbol Q); conditions: 320 g/ha, 3 weeks after application
# How it was run: as §3
SMILES,R (Veronica persica) herbicidal effect grade (Veronica persica [1]),g (rapeseed) effect on crop grade (rapeseed),H (Echinochloa crus-galli var. crus-galli) herbicidal effect grade [2],"N: Amaranthus retroflexus, herbicidal effect grade (Amaranthus retroflexus)","G: Setaria viridis, herbicidal effect grade (Setaria viridis)","M: Abutilon theophrasti, herbicidal effect grade (Abutilon theophrasti)","Herbicidal effect grade, A: Echinochloa oryzacola Vasing. [6]","Herbicidal effect grade, A: Echinochloa oryzacola Vasing. [7]","b: directly sowed rice plant, effect on crop grade (rice plant)","K: Lolium multiflorum Lam., herbicidal effect grade (Lolium multiflorum Lam. [4])",K (Lolium multiflorum Lam.) herbicidal effect grade (Lolium multiflorum Lam. [5]),I (Avena fatua) herbicidal effect grade (Avena fatua),c (corn) effect on crop grade (corn),J (Alopecurus myosuroides) herbicidal effect grade (Alopecurus myosuroides),"P: Stellaria media, herbicidal effect grade (Stellaria media)",further results
CC(=O)CC1CC(O)=C(c2c(C)cc(Oc3ccccc3)cc2C)C1=O (stereo not drawn) [7-014],,,,,,,,,,,,,,,,"Herbicidal effect grade, R: Veronica persica (Veronica persica [1]): 0 (Herbicidal ratio of 5% or lower (almost no effect)); Effect on crop grade, g: rapeseed (rapeseed): 0 (Herbicidal ratio of 5% or lower (almost no effect)); Herbicidal effect grade, H: Echinochloa crus-galli var. crus-galli [2]: 0 (Herbicidal ratio of 5% or lower (almost no effect)); N: Amaranthus retroflexus, herbicidal effect (criteria of Test Example 1) (Amaranthus retroflexus): 0 (Herbicidal ratio of 5% or lower (almost no effect)); R: Veronica persica, herbicidal effect (criteria of Test Example 1) (Veronica persica [3]): 0 (Herbicidal ratio of 5% or lower (almost no effect)); G: Setaria viridis, herbicidal effect (criteria of Test Example 1) (Setaria viridis): 0 (Herbicidal ratio of 5% or lower (almost no effect)); M: Abutilon theophrasti, herbicidal effect (criteria of Test Example 1) (Abutilon theophrasti): 0 (Herbicidal ratio of 5% or lower (almost no effect)); b: directly sowed rice plant, effect on crop (criteria of Test Example 1) (rice plant): 3 (Herbicidal ratio of 40% or higher and lower than 70%); K: Lolium multiflorum Lam., herbicidal effect (criteria of Test Example 1) (Lolium multiflorum Lam. [4]): 5 (Herbicidal ratio of 90% or more (almost completely withered)); Herbicidal effect grade, K: Lolium multiflorum Lam. (Lolium multiflorum Lam. [5]): 3 (Herbicidal ratio of 40% or higher and lower than 70%); Herbicidal effect grade, I: Avena fatua (Avena fatua): 0 (Herbicidal ratio of 5% or lower (almost no effect)); Effect on crop grade, c: corn (corn): 0 (Herbicidal ratio of 5% or lower (almost no effect)); Herbicidal effect grade, J: Alopecurus myosuroides (Alopecurus myosuroides): 0 (Herbicidal ratio of 5% or lower (almost no effect)); P: Stellaria media, herbicidal effect (criteria of Test Example 1) (Stellaria media): 0 (Herbicidal ratio of 5% or lower (almost no effect))"
CC(CC1CC(O)=C(c2c(C)cc(C)cc2C)C1=O)=NOCC=CCl (stereo not drawn) [1-056],0 (Herbicidal ratio of 5% or lower (almost no effect)),4 (Herbicidal ratio of 70% or higher and lower than 90%),5 (Herbicidal ratio of 90% or more (almost completely withered)),2 (Herbicidal ratio of 20% or higher and lower than 40%),5 (Herbicidal ratio of 90% or more (almost completely withered)),4 (Herbicidal ratio of 70% or higher and lower than 90%),5 (Herbicidal ratio of 90% or more (almost completely withered)),5 (Herbicidal ratio of 90% or more (almost completely withered)),5 (Herbicidal ratio of 90% or more (almost completely withered)),5 (Herbicidal ratio of 90% or more (almost completely withered)),5 (Herbicidal ratio of 90% or more (almost completely withered)),3 (Herbicidal ratio of 40% or higher and lower than 70%),3 (Herbicidal ratio of 40% or higher and lower than 70%),5 (Herbicidal ratio of 90% or more (almost completely withered)),0 (Herbicidal ratio of 5% or lower (almost no effect)),
CC(CC1CC(O)=C(c2c(C)cc(C)cc2C)C1=O)=NO (stereo not drawn) [1-058],0 (Herbicidal ratio of 5% or lower (almost no effect)),3 (Herbicidal ratio of 40% or higher and lower than 70%),5 (Herbicidal ratio of 90% or more (almost completely withered)),1 (Herbicidal ratio of 5% or higher and lower than 20%),5 (Herbicidal ratio of 90% or more (almost completely withered)),4 (Herbicidal ratio of 70% or higher and lower than 90%),5 (Herbicidal ratio of 90% or more (almost completely withered)),5 (Herbicidal ratio of 90% or more (almost completely withered)),5 (Herbicidal ratio of 90% or more (almost completely withered)),5 (Herbicidal ratio of 90% or more (almost completely withered)),5 (Herbicidal ratio of 90% or more (almost completely withered)),1 (Herbicidal ratio of 5% or higher and lower than 20%),4 (Herbicidal ratio of 70% or higher and lower than 90%),5 (Herbicidal ratio of 90% or more (almost completely withered)),0 (Herbicidal ratio of 5% or lower (almost no effect)),
CC(CC1CC(O)=C(c2c(C)cc(C)cc2C)C1=O)=NOCC[Si](C)(C)C (stereo not drawn) [1-055],0 (Herbicidal ratio of 5% or lower (almost no effect)),0 (Herbicidal ratio of 5% or lower (almost no effect)),4 (Herbicidal ratio of 70% or higher and lower than 90%),0 (Herbicidal ratio of 5% or lower (almost no effect)),3 (Herbicidal ratio of 40% or higher and lower than 70%),0 (Herbicidal ratio of 5% or lower (almost no effect)),5 (Herbicidal ratio of 90% or more (almost completely withered)),2 (Herbicidal ratio of 20% or higher and lower than 40%),5 (Herbicidal ratio of 90% or more (almost completely withered)),5 (Herbicidal ratio of 90% or more (almost completely withered)),5 (Herbicidal ratio of 90% or more (almost completely withered)),0 (Herbicidal ratio of 5% or lower (almost no effect)),0 (Herbicidal ratio of 5% or lower (almost no effect)),1 (Herbicidal ratio of 5% or higher and lower than 20%),0 (Herbicidal ratio of 5% or lower (almost no effect)),
CON=C(CC1CC(O)=C(c2c(C)cc(C)cc2C)C1=O)c1ccccn1 (stereo not drawn) [1-045],,0 (Herbicidal ratio of 5% or lower (almost no effect)),0 (Herbicidal ratio of 5% or lower (almost no effect)),0 (Herbicidal ratio of 5% or lower (almost no effect)),5 (Herbicidal ratio of 90% or more (almost completely withered)),0 (Herbicidal ratio of 5% or lower (almost no effect)),5 (Herbicidal ratio of 90% or more (almost completely withered)),3 (Herbicidal ratio of 40% or higher and lower than 70%),5 (Herbicidal ratio of 90% or more (almost completely withered)),5 (Herbicidal ratio of 90% or more (almost completely withered)),4 (Herbicidal ratio of 70% or higher and lower than 90%),0 (Herbicidal ratio of 5% or lower (almost no effect)),0 (Herbicidal ratio of 5% or lower (almost no effect)),0 (Herbicidal ratio of 5% or lower (almost no effect)),0 (Herbicidal ratio of 5% or lower (almost no effect)),"Q: Galium spurium, herbicidal effect grade (Galium spurium): 0 (Herbicidal ratio of 5% or lower (almost no effect)); R: Veronica persica, herbicidal effect grade (Veronica persica [3]): 0 (Herbicidal ratio of 5% or lower (almost no effect))"
